Data from publication PMC5285354, “Cationic Net Charge and Counter Ion Type as Antimicrobial Activity Determinant Factors of Short Lipopeptides” (Frontiers in Microbiology, 2017).
≈ marks a conversion by molar mass, not a printed value. Read-outs that look alike come from different tables or passages of the source. Where a SMILES comes first, the peptide text is derived from it. The star is where a group is joined. Decanoyl = CCCCCCCCCC(=O)*; Octanoyl = CCCCCCCC(=O)*

Legend:
Assay type in all cases: cell-based
[1] = system: Escherichia coli (ATCC 25922)
Procedure: (§1) The minimum inhibitory concentration (MIC), minimum bactericidal concentration (MBC) and minimum fungicidal concentration (MFC) were determined according to the procedure recommended by the Clinical Laboratory Standards Institute (CLSI). The following reference strains were tested: Gram-negative E. coli (ATCC 25922), K. pneumoniae (ATCC 700603), P. vulgaris (PCM 2668), P. aeruginosa (ATCC 9027), Gram-positive S. aureus (ATCC 25923), S. epidermidis (PCM 2118), B. subtilis (ATCC 6633), E. faecalis (ATCC 29212) and fungi C. albicans (ATCC 10231), C. tropicalis (PCM 2681), and A. brasiliensis (ATCC 16404). All the microorganisms were from the Polish Collection of Microorganisms (Wroclaw, Poland). MIC was determined using a microbroth dilution method with Mueller-Hinton (MH) broth for bacteria and Sabouraud Dextrose broth for fungi (Becton Dickinson, Le Pont de Claix, France). An initial inoculum of 10^5 cfu/mL was used for bacteria and 10^3 cfu/mL for fungi. Polypropylene 96-well plates (Kartell, Noviglio, Italy) were incubated for 18 h at 37°C for bacteria and for 48 h at 25°C for the tested fungi. MIC (μg/mL) was taken as the lowest concentration of the lipopeptide, at which the observable growth was inhibited. […] The experiments were performed in triplicate on three different days.

[2] = system: Klebsiella pneumoniae (ATCC 700603)
Procedure: as §1

[3] = system: Pseudomonas aeruginosa (ATCC 9027); conditions: for MBC Pseudomonas aeruginosa: subculture on Mueller-Hinton II Agar, 24 h 37°C
Procedure: as §1

[4] = system: Staphylococcus aureus (ATCC 25923); conditions: for MBC Staphylococcus aureus: MIC wells subcultured on Mueller-Hinton II Agar, 24 h 37°C, triplicate
Procedure: as §1

[5] = system: Candida albicans (ATCC 10231)
Procedure: as §1

[6] = system: Candida tropicalis (PCM 2681); conditions: PCM 2681, 48 h
Procedure: as §1

[7] = system: Bacillus subtilis (ATCC 6633)
Procedure: as §1

[8] = system: Proteus vulgaris (PCM 2668); conditions: PCM 2668, TFA salt, triplicate; for MIC Proteus vulgaris: Mueller-Hinton broth, 10^5 cfu/mL, 18 h 37°C; for MBC Proteus vulgaris: subculture on Mueller-Hinton II Agar, 24 h 37°C
Procedure: as §1

[9] = system: Aspergillus brasiliensis (ATCC 16404); conditions: ATCC 16404, 48 h
Procedure: as §1

[10] = system: Enterococcus faecalis (ATCC 29212); conditions: for MBC Enterococcus fecalis: subculture on Mueller-Hinton II Agar, 24 h 37°C
Procedure: as §1

[11] = system: Staphylococcus epidermidis (PCM 2118)
Procedure: as §1

[12] = system: Pseudomonas aeruginosa (ATCC 9027); conditions: ATCC 9027, 24 h
[13] = ATCC 25922, TFA salt, Mueller-Hinton broth, 10^5 cfu/mL, 18 h 37°C, triplicate
[14] = ATCC 25922, TFA salt, subculture on Mueller-Hinton II Agar, 24 h 37°C, triplicate
[15] = ATCC 700603, TFA salt, Mueller-Hinton broth, 10^5 cfu/mL, 18 h 37°C, triplicate
[16] = ATCC 700603, TFA salt, subculture on Mueller-Hinton II Agar, 24 h 37°C, triplicate
[17] = ATCC 9027, TFA salt, Mueller-Hinton broth, 10^5 cfu/mL, 18 h 37°C, triplicate
[18] = ATCC 9027, TFA salt, triplicate
[19] = ATCC 25923, TFA salt, Mueller-Hinton broth, 10^5 cfu/mL, 18 h 37°C, triplicate on three days
[20] = ATCC 29212, TFA salt, triplicate
[21] = ATCC 29212, TFA salt, Mueller-Hinton broth, 10^5 cfu/mL, 18 h 37°C, triplicate

SMILES	MIC Escherichia coli [1, 13] [µg/mL]	MIC Klebsiella pneumoniae [2, 15] [µg/mL]	MIC Staphylococcus aureus [4, 19] [µg/mL]	MIC Candida albicans ([5]; ATCC 10231, 48 h) [µg/mL]	MIC Candida tropicalis [6] [µg/mL]	MIC Proteus vulgaris [8] [µg/mL]	MIC Aspergillus brasiliensis [9] [µg/mL]	MIC Bacillus subtillis ([7]; ATCC 6633, 18 h) [µg/mL]	MIC Enterococcus fecalis [10, 21] [µg/mL]	MIC Staphylococcus epidermidis ([11]; PCM 2118, 18 h) [µg/mL]	MBC Escherichia coli [1, 14] [µg/mL]	MBC Klebsiella pneumoniae [2, 16] [µg/mL]	MBC Staphylococcus aureus ([4]; ATCC 25923, TFA salt) [µg/mL]	MFC Candida albicans ([5]; ATCC 10231, 48 h) [µg/mL]	MFC Candida tropicalis [6] [µg/mL]	MBC Proteus vulgaris [8] [µg/mL]	MFC Aspergillus brasiliensis [9] [µg/mL]	MBC Enterococcus fecalis [10, 20] [µg/mL]	MBC Bacillus subtillis ([7]; ATCC 6633, 24 h) [µg/mL]	MBC Staphylococcus epidermidis ([11]; PCM 2118, 24 h) [µg/mL]	other results
CCCCCCCC(=O)N[C@@H](CCCCN)C(=O)N[C@@H](CCCCN)C(=O)N[C@@H](CCCCN)C(=O)N[C@@H](CCCCN)C(N)=O [C8-KKKK-NH2] (Octanoyl-KKKK-NH2)	>1000	>2000	>2000	2000 (≈ 3050 µM)	2000 (≈ 3050 µM)	>2000	2000 (≈ 3050 µM)				>1000	>2000	>2000	2000 (≈ 3050 µM)	2000 (≈ 3050 µM)	>2000	2000 (≈ 3050 µM)	>2000			MIC Pseudomonas aeruginosa [3, 17]: >2000 µg/mL; MBC Pseudomonas aeruginosa [3, 18]: >2000 µg/mL; MIC Bacillus subtillis ([7]; ATCC 6633, TFA salt, Mueller-Hinton broth, 10^5 cfu/mL, 18 h 37°C, triplicate): >2000 µg/mL; MBC Bacillus subtillis ([7]; ATCC 6633, TFA salt, subculture on Mueller-Hinton II Agar, 24 h 37°C, triplicate): >2000 µg/mL; MIC Enterococcus fecalis ([10]; ATCC 29212, 18 h): 2000 µg/mL (≈ 3050 µM); MIC Staphylococcus epidermidis ([11]; PCM 2118, TFA salt, Mueller-Hinton broth, 10^5 cfu/mL, 18 h 37°C, triplicate): >2000 µg/mL; MBC Staphylococcus epidermidis ([11]; PCM 2118, TFA salt, subculture on Mueller-Hinton II Agar, 24 h 37°C, triplicate): >2000 µg/mL
CCCCCCCCCC(=O)N[C@@H](CCCCN)C(N)=O [C10-K-NH2]				1000 (≈ 3340 µM)	1000 (≈ 3340 µM)	>2000	512 (≈ 1710 µM)	1000 (≈ 3340 µM)	>2000	1000 (≈ 3340 µM)			>1000	2000 (≈ 6680 µM)	2000 (≈ 6680 µM)	>2000	1000 (≈ 3340 µM)	>2000	1000 (≈ 3340 µM)	1000 (≈ 3340 µM)	MBC Pseudomonas aeruginosa [12]: 1000 µg/mL (≈ 3340 µM); MIC Escherichia coli ([1]; ATCC 25922, 18 h): 1000 µg/mL (≈ 3340 µM); MBC Escherichia coli ([1]; ATCC 25922, 24 h): 1000 µg/mL (≈ 3340 µM); MIC Klebsiella pneumoniae ([2]; ATCC 700603, 18 h): 1000 µg/mL (≈ 3340 µM); MBC Klebsiella pneumoniae ([2]; ATCC 700603, 24 h): 1000 µg/mL (≈ 3340 µM); MIC Pseudomonas aeruginosa ([3]; ATCC 9027, 18 h): 512 µg/mL (≈ 1710 µM); MIC Staphylococcus aureus ([4]; ATCC 25923, 18 h): 1000 µg/mL (≈ 3340 µM)
CCCCCCCCCC(=O)N[C@@H](CCCCN)C(=O)N[C@@H](CCCCN)C(=O)N[C@@H](CCCCN)C(N)=O [C10-KKK-NH2]	>2000	>2000	>2000	2000 (≈ 3600 µM)	2000 (≈ 3600 µM)	>2000	1000 (≈ 1800 µM)	128 (≈ 230 µM)	>2000	128 (≈ 230 µM)	>2000	>2000	>2000	2000 (≈ 3600 µM)	2000 (≈ 3600 µM)	>2000	2000 (≈ 3600 µM)	>2000	256 (≈ 461 µM)	256 (≈ 461 µM)	MIC Pseudomonas aeruginosa [3, 17]: >2000 µg/mL; MBC Pseudomonas aeruginosa [3, 18]: >2000 µg/mL
CCCCCCCCCC(=O)N[C@@H](CCCCN)C(=O)N[C@@H](CCCCN)C(=O)N[C@@H](CCCCN)C(=O)N[C@@H](CCCCN)C(N)=O [C10-KKKK-NH2] (Decanoyl-KKKK-NH2)	>2000	>2000	>2000		2000 (≈ 2920 µM)	>2000	2000 (≈ 2920 µM)	128 (≈ 187 µM)	>2000	64 (≈ 93.6 µM)	>2000	>2000	>2000		2000 (≈ 2920 µM)	>2000	2000 (≈ 2920 µM)	>2000	128 (≈ 187 µM)	128 (≈ 187 µM)	MIC Pseudomonas aeruginosa [3, 17]: >2000 µg/mL; MBC Pseudomonas aeruginosa [3, 18]: >2000 µg/mL; MIC Candida albicans ([5]; ATCC 10231, TFA salt, Sabouraud Dextrose broth, 10^3 cfu/mL, 48 h 25°C, triplicate): >2000 µg/mL; MFC Candida albicans ([5]; ATCC 10231, TFA salt, subculture on Sabouraud 2% Glucose Agar, 48 h 25°C, triplicate): >2000 µg/mL

Second part, led by results:

MIC Escherichia coli [1, 13] [µg/mL]	MIC Klebsiella pneumoniae [2, 15] [µg/mL]	MIC Staphylococcus aureus [4, 19] [µg/mL]	MIC Candida albicans ([5]; ATCC 10231, 48 h) [µg/mL]	MIC Candida tropicalis [6] [µg/mL]	MIC Proteus vulgaris [8] [µg/mL]	MIC Aspergillus brasiliensis [9] [µg/mL]	MIC Bacillus subtillis ([7]; ATCC 6633, 18 h) [µg/mL]	MIC Enterococcus fecalis [10, 21] [µg/mL]	MIC Staphylococcus epidermidis ([11]; PCM 2118, 18 h) [µg/mL]	SMILES	MBC Escherichia coli [1, 14] [µg/mL]	MBC Klebsiella pneumoniae [2, 16] [µg/mL]	MBC Staphylococcus aureus ([4]; ATCC 25923, TFA salt) [µg/mL]	MFC Candida albicans ([5]; ATCC 10231, 48 h) [µg/mL]	MFC Candida tropicalis [6] [µg/mL]	MBC Proteus vulgaris [8] [µg/mL]	MFC Aspergillus brasiliensis [9] [µg/mL]	MBC Enterococcus fecalis [10, 20] [µg/mL]	MBC Bacillus subtillis ([7]; ATCC 6633, 24 h) [µg/mL]	MBC Staphylococcus epidermidis ([11]; PCM 2118, 24 h) [µg/mL]	other results
>2000		>2000	1000 (≈ 2800 µM)	1000 (≈ 2800 µM)	>2000	1000 (≈ 2800 µM)	512 (≈ 1440 µM)		512 (≈ 1440 µM)	CCCCCCCCCC(=O)N[C@@H](CCCCN)C(=O)NCC(N)=O [C10-KG-NH2] (Decanoyl-Lys-Gly-NH2)	>2000		>2000	2000 (≈ 5610 µM)	2000 (≈ 5610 µM)	>2000	2000 (≈ 5610 µM)	>1000	512 (≈ 1440 µM)	1000 (≈ 2800 µM)	MBC Pseudomonas aeruginosa [12]: 2000 µg/mL (≈ 5610 µM); MIC Klebsiella pneumoniae ([2]; ATCC 700603, 18 h): 1000 µg/mL (≈ 2800 µM); MBC Klebsiella pneumoniae ([2]; ATCC 700603, 24 h): 2000 µg/mL (≈ 5610 µM); MIC Pseudomonas aeruginosa ([3]; ATCC 9027, 18 h): 1000 µg/mL (≈ 2800 µM); MIC Enterococcus fecalis ([10]; ATCC 29212, 18 h): 1000 µg/mL (≈ 2800 µM)
>2000	>2000	>2000	1000 (≈ 2060 µM)	512 (≈ 1060 µM)	>2000	1000 (≈ 2060 µM)	512 (≈ 1060 µM)	>2000	512 (≈ 1060 µM)	CCCCCCCCCC(=O)N[C@@H](CCCCN)C(=O)NCC(=O)N[C@@H](CCCCN)C(N)=O [C10-KGK-NH2] (Decanoyl-Lys-Gly-Lys-NH2)	>2000	>2000	>2000	1000 (≈ 2060 µM)	1000 (≈ 2060 µM)	>2000	1000 (≈ 2060 µM)	>2000	1000 (≈ 2060 µM)	512 (≈ 1060 µM)	MBC Pseudomonas aeruginosa [12]: 2000 µg/mL (≈ 4130 µM); MIC Pseudomonas aeruginosa ([3]; ATCC 9027, 18 h): 2000 µg/mL (≈ 4130 µM)
